Results from US20130102009A1, “SIRTUIN ACTIVATORS AND ACTIVATION ASSAYS” (priority 2010, published 2013).

Experiments:
[1] = target: Ac-Arg-His-Lys-Lys^Ac-AMC; test: ITC binding of STACs to Ac-Arg-His-Lys-Lys^Ac-X, X=AMC; settings: 10% DMSO for SRT1720, SRT2183 and 10, no cosolvent for SRT1460
Method: (§1) ITC experiments were performed using either a VP-ITC system or iTC200 system (MicroCal) at 26° C. in a buffer composed of 137 mM NaCl, 2.7 mM KCl, 1 mM MgCl2, 2 mM TCEP, 5% (v/v) glycerol and 50 mM HEPES-NaOH, pH 7.3. SIRT1(183-664) was purified and dialyzed against the buffer, centrifuged, and degassed before the experiment. The peptide and compounds were dissolved in the final dialysis buffer and their pH values were adjusted to match that of the protein solution. […] To characterize this interaction using the iTC200 system, 1 mM TAMRA-peptide was injected in 20 aliquots of 2 μL, (except the first injection, which was 0.5 μL) into a 0.202 mL sample cell containing 100 μM STAC. For STACs with poor solubility, the concentrations were adjusted accordingly. […] In all cases, data was corrected for the heat of dilution and fitted using a nonlinear least-squares routine using a single-site binding model with Origin for ITC v7.0383 (Microcal) with the stoichiometry (n), the enthalpy of the reaction (ΔH) and the association constant (Ka) calculated. Table 2 summarizes Kd values for the binding of STACs to […]. Note that except for SRT1460, the solubility of the compounds required that these ITC experiments be done in solutions containing 10% DMSO.

[2] = target: Ac-Arg-His-Lys-Lys^Ac-NH2; test: ITC binding of STACs to Ac-Arg-His-Lys-Lys^Ac-X, X=NH2; settings: 10% DMSO for SRT1720, SRT2183 and 10, no cosolvent for SRT1460
Method: as §1

[3] = target: Ac-Arg-His-Lys-Lys^Ac-Phe-NH2; test: ITC binding of STACs to Ac-Arg-His-Lys-Lys^Ac-X, X=PheNH2; settings: 10% DMSO for SRT1720, SRT2183 and 10, no cosolvent for SRT1460
Method: as §1

[4] = target: Ac-Arg-His-Lys-Lys^Ac-Trp-NH2; test: ITC binding of STACs to Ac-Arg-His-Lys-Lys^Ac-X, X=TrpNH2; settings: 10% DMSO for SRT1720, SRT2183 and 10, no cosolvent for SRT1460
Method: as §1

SIRT1 [5] = target: T1, SIRT1 (Homo sapiens, UniProt Q96EB6); test: Continuous PNC1-GDH-coupled assay of SIRT1-catalyzed deacetylation of Ac-Arg-His-Lys-Lys^Ac-X with STACs; format: biochemical; settings: [SRT]o = 5 μM, [peptide]o ≦ Km, [NAD+] = 70 μM; for Relative Velocity, X=AMC: Ac-Arg-His-Lys-Lys^Ac-AMC; for Relative Velocity, X=Ala-NH2: Ac-Arg-His-Lys-Lys^Ac-Ala-NH2; for Relative Velocity, X=NH2: Ac-Arg-His-Lys-Lys^Ac-NH2; for Relative Velocity, X=Phe-NH2: Ac-Arg-His-Lys-Lys^Ac-Phe-NH2
T1 sequence (Q96EB6 1-747): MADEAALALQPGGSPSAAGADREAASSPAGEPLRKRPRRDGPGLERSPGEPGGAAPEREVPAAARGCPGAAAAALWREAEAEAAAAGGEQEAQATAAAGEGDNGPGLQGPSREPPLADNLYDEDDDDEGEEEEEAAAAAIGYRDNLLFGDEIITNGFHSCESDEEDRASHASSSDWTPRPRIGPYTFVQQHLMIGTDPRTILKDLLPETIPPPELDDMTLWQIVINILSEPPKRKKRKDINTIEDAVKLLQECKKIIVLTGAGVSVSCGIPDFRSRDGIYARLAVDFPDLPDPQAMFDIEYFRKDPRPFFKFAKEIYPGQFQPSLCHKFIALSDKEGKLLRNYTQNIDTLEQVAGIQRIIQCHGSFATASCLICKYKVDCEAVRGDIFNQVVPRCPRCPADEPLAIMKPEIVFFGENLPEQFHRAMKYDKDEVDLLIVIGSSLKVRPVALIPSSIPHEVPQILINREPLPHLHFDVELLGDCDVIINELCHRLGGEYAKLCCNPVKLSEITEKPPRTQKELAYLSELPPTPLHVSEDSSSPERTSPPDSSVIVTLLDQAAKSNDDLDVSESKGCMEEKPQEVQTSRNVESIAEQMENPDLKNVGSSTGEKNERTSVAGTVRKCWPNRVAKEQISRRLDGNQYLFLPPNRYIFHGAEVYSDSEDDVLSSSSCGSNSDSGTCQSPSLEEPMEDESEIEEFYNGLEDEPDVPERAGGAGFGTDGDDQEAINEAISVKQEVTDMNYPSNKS
Method: Bovine glutamate dehydrogenase (GDH), α-ketoglutarate, NADH and NAD^+ were from Sigma Chemical Company. […] The nicotinamidase PNC1 was prepared as described by Denu and colleagues (Smith et al. (2009) Anal Biochem 394, 101-109). To determine the interaction of STACs with SIRT1 two kinetic methods were employed. […] (2007) Nature 450, 712-716). The other, used with peptides of general structure […], used a continuous, enzyme-coupled method reported previously (Smith et al. (2009) Anal Biochem 394, 101-109), in which the SRT1 product nicotinamide is first converted into nicotinic acid and ammonia by the action of PNC1, and the ammonia then used by GDH to convert α-ketoglutarate into glutamate. This reaction occurs with oxidation of NADH to NAD^+ which is accompanied by a change in absorbance at 340 nm (Δε340=-6,200 M^-1 cm^-1). The kinetic experiments used to characterize activators were run on a Perkin Elmer Lambda 25 spectrophotometer equipped with a water-jacketed, eight-cell changer maintained at 25° C. In a typical kinetic experiment, all components of the reaction solution except SIRT1 were added to a 1 mL cuvette and allowed to reach thermal equilibrium. Final concentrations of the coupling system components were: 1 μM PNC1, 0.23 mM NADH, 3.4 mM α-ketoglutarate, and 20 U/mL bovine GDH. This solution also contained peptide substrate, NAD^.0., and activator, at concentrations indicated in the text. The final DMSO concentration was kept constant at 1%, and the buffer used in these experiments was 50 mM HEPES, 150 mM NaCl, pH 7.5. While the system was reaching thermal equilibrium, the absorbance was monitored to provide an accurate estimate of the background rate, which was subtracted from the reaction rate after the addition of SIRT1. Activator titrations were plotted as relative velocity (i.e., the ratio of vx, velocity in the presence of activator X, to vo, velocity in the absence of activator) vs. [X]o, initial concentration of activator, and fit by nonlinear least-squares to the mechanism-independent expression for enzyme activation of […] the maximum relative velocity (i.e., vx/vo at infinite [X]o) and EC50 is the activator concentration at which vx/vo=(RVmax-1)/2. EC50 is a function of the kinetic mechanisms of both catalysis and activation, and the concentrations of substrates.

TAMRA-peptide = test: ITC binding of STACs to TAMRA-peptide; settings: 26° C., pH 7.3, read-out: Kd for the binding of activator to TAMRA-peptide
Method: ITC experiments were performed using either a VP-ITC system or iTC200 system (MicroCal) at 26° C. in a buffer composed of 137 mM NaCl, 2.7 mM KCl, 1 mM MgCl2, 2 mM TCEP, 5% (v/v) glycerol and 50 mM HEPES-NaOH, pH 7.3. SIRT1(183-664) was purified and dialyzed against the buffer, centrifuged, and degassed before the experiment. The peptide and compounds were dissolved in the final dialysis buffer and their pH values were adjusted to match that of the protein solution. […] To characterize this interaction using the iTC200 system, 1 mM TAMRA-peptide was injected in 20 aliquots of 2 μL, (except the first injection, which was 0.5 μL) into a 0.202 mL sample cell containing 100 μM STAC. For STACs with poor solubility, the concentrations were adjusted accordingly. […] In all cases, data was corrected for the heat of dilution and fitted using a nonlinear least-squares routine using a single-site binding model with Origin for ITC v7.0383 (Microcal) with the stoichiometry (n), the enthalpy of the reaction (ΔH) and the association constant (Ka) calculated.

SIRT1 [6] = target: T1, SIRT1; test: Mass spectrometry based SIRT1 activation assay (TAMRA/5TMR-labeled 20mer peptide); format: biochemical
How it was run: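 N-terminal His-tagged human SIRT1 from E. coli BL21(DE3), 10 nM, incubated 25 min at 25° C with 0.5 μM biotin/5TMR-labeled acetylated p53-derived 20mer peptide and 120 μM βNAD+ in Tris-acetate pH 8 buffer with DTT and BSA. Formic acid stop; MS quantifies acetylated vs deacetylated peptide. EC1.5 = concentration giving 150% activation.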

SIRT1 [7] = target: T1, SIRT1; test: Mass spectroscopic kinetic assay of SIRT1-catalyzed deacetylation of 20mer peptides; format: biochemical; settings: substrate TAMRA-peptide
Method: Bovine glutamate dehydrogenase (GDH), α-ketoglutarate, NADH and NAD^+ were from Sigma Chemical Company. […] The nicotinamidase PNC1 was prepared as described by Denu and colleagues (Smith et al. (2009) Anal Biochem 394, 101-109). Our collection of approximately 5,000 SIRT1 activators was screened using the BioTrove mass spectrometry system, as previously described (Milne et al. (2007) Nature 450, 712-716). […] Compounds were present at 10 μM, and the assays were conducted in a pH 7.4 buffer containing 150 mM Tris, 5 mM DTT, 1% DMSO, and 0.025% BSA. To determine the interaction of STACs with SIRT1 two kinetic methods were employed. […] (2007) Nature 450, 712-716). The other, used with peptides of general structure […], used a continuous, enzyme-coupled method reported previously (Smith et al. (2009) Anal Biochem 394, 101-109), in which the SRT1 product nicotinamide is first converted into nicotinic acid and ammonia by the action of PNC1, and the ammonia then used by GDH to convert α-ketoglutarate into glutamate. This reaction occurs with oxidation of NADH to NAD^+ which is accompanied by a change in absorbance at 340 nm (Δε340=-6,200 M^-1 cm^-1). Activator titrations were plotted as relative velocity (i.e., the ratio of vx, velocity in the presence of activator X, to vo, velocity in the absence of activator) vs. [X]o, initial concentration of activator, and fit by nonlinear least-squares to the mechanism-independent expression for enzyme activation of […] the maximum relative velocity (i.e., vx/vo at infinite [X]o) and EC50 is the activator concentration at which vx/vo=(RVmax-1)/2. EC50 is a function of the kinetic mechanisms of both catalysis and activation, and the concentrations of substrates.

Structure (SMILES) | Kd [1] | Kd [2] | Kd [3] | Kd [4] | Kd for binding to Ac-Arg-His-Lys-Lys^Ac-X, X=TrpNH2 [4] | Relative Velocity, X=AMC (SIRT1 [5]) | Relative Velocity, X=Ala-NH2 (SIRT1 [5]) | Relative Velocity, X=NH2 (SIRT1 [5]) | Relative Velocity, X=Phe-NH2 (SIRT1 [5]) | Kd (TAMRA-peptide) | Emax (SIRT1 [6]; 25 min, percent maximum fold activation of SIRT1, read-out: % FOLD ACT.) | EC1.5 uM (SIRT1 [6]; concentration that results in 150% activation of SIRT1) | EC1.5 for activation of SIRT1 (SIRT1 [7]; concentration for 1.5-fold activation) | EC50 (SIRT1 [7]; fit to eq (1), read-out: EC50 (Kx) for activation of SIRT1-catalyzed deacetylation of TAMRA-peptide) | Relative Velocity, X=Trp-NH2 (SIRT1 [5]; Ac-Arg-His-Lys-Lys^Ac-Trp-NH2)
O=C(Nc1ccccc1-c1cn2c(CN3CCNCC3)csc2n1)c1cnc2ccccc2n1 [SRT1720] | > 500 µM | > 500 µM | > 500 µM | 150 µM | binds | 1.0 | 0.9 | 1.1 | 0.9 |  |  |  |  |  | 
O=C(Nc1ccccc1-c1nc2cc(CCC3CCNCC3)cnc2s1)c1cccc(C2CCNC2)c1 (centres unmarked) [Compound 7] |  |  |  |  |  |  |  |  |  | 36 µM | ≥ 200% | A (EC1.5≦1 μM) | 0.1 µM | 0.5 µM | 
O=C(Nc1ccccc1-c1cn2c(CN3CC[C@@H](O)C3)csc2n1)c1ccc2ccccc2c1 [SRT2183] | > 50 µM | > 50 µM | > 50 µM | > 50 µM |  | 1.1 | 0.8 | 1.2 | 1.0 |  |  |  |  |  | 1.0
